# Test results reported in patent EP0934745B1, “Use of androsterone derivatives for inhibiting DNA binding of ap-1 and airway smooth muscle proliferation” (CHARLOTTE-MECKLENBURG HOSPITAL doing business as Carolinas …, priority 1998, dated 1999).
# Legend:
# guinea pig main bronchi = experiment: Bronchial smooth muscle contraction in vitro (isolated bronchial rings, isometric tension)
# Method: Effect on bronchial smooth muscle contraction in vitro. To study the effect of DHEA on bronchial smooth muscle in vitro, male Hartley guinea-pigs (Charles River Laboratories, Inc., Wilmington, MA) were anaesthetized with sodium pentobarbital (pentobarbital sodium (Abbott Laboratories) (200 mg/kg intraperitoneally). Then trachea and lungs were quickly removed and immersed in oxygenated Krebs-Henseleit solution (K-H) containing (mM) : 115 NaCl, 25 NaHCO3, 1.38 NaH2PO4, 2.5 KCl, 2.46 MgSO4, 1.9 CaCl2, and 5.56 dextrose, aerated with 95% O2 and 5% CO2.
# The main bronchi were dissected free of loose connective tissue, under a stereo-microscope (Olympus SZH10), and bronchial rings were obtained and mounted in double jacketed organ baths filled with K-H at 37°C and continuously aerated with a 95% O2 and 5% CO2 gas mixture, which produced a pH of 7.4. The bronchial rings were connected to force displacement transducers (Grass FTO3) for continuous recording of isometric tension on paper polygraph (Gould RS3800) and allowed to equilibrate for 90 minutes. After the equilibration period 1mM acetylcholine was administered and the response monitored.
# Bronchial rings were partially contracted with 3·10^-2 M KCl or 10^-5 M acetylcholine (ACh) , then the effect of DHEA was studies by increasing cumulatively its concentration at log intervals from 10^-3 to 10^-4 M and measuring the changes produced in active tension.
# A concentration of 3 x 10^-2 M KCl was chosen on the basis of preliminary experiments, in which from concentration-response curves to KCl (10^-2 - 10^-1 M) it was determined that the concentration of KCl eliciting 50% of the maximum response (KCl-EC50) in the experimental set up. […] Similarly, 10^-5 M acetylcholine (ACh) was chosen as the concentration of ACh eliciting 50% of the maximum response.
# Since DHEA was dissolved in dimethyl sulfoxide (DMSO), four additional rings were contracted with 3 x 10^-2 M KCl (n=5) or 10^-5 M ACh (n=5) to determine whether this vehicle produced any alteration of the active force. […] The maximum final concentration of DMSO in the organ bath was 0.15%.
# Three of the strips used to study DHEA were rinsed with fresh K-H at the end of the experiment, treated with 1 mM acetylcholine, and the response monitored.
# In a second set of experiments either a single dose of 10^-5 M ACh was administered or a concentration-response curve to ACh was performed in the presence or absence of 10^-4 M DHEA (administered 15 minutes before ACh). The single dose of ACh was used to measure the rate of tension development, while the concentration-response study was used to evaluate whether DHEA affected sensitivity to ACh.
# Human Erythrocyte G6PDH = biological target: T1, Human Erythrocyte G6PDH (Homo sapiens, UniProt P11413); experiment: Inhibition of purified glucose 6-phosphate dehydrogenase activity; type: biochemical; conditions: 0.01 U/ml Type XXVI G6PDH from human erythrocytes, vs DMSO vehicle-treated controls, read-out: PERCENT INHIBITION OF GLUCOSE 6-PHOSPHATE DEHYDROGENASE ACTIVITY
# T1 construct: purified G6PDH from human erythrocytes; purchased Sigma Type XXVI; host or cells: human erythrocytes (natural source)
# c-fos = experiment: Expression of c-fos protein (immunoblot) and mRNA (RT-PCR) after FBS stimulation; type: cell-based, rat; conditions: pretreated 2 hours with 10 µM (Figures 7A-7C)
# Method: To determine if 16α-BrEA impaired expression of early response genes important for cellular proliferation, confluent 75-cm^2 Petri dishes of airway smooth muscle cells were growth arrested by incubation for 24 hours in DMEM with 0.5% FBS. Monolayers were pretreated 2 hours with 10 µM 16α-BrEA or DMSO vehicle, and stimulated by exposure to DMEM with 10% FBS for 30 minutes. Cells were then lysed and c-fos mRNA was measured by the reverse transcriptase-polymerase chain reaction, as described below. To study whether levels of c-fos protein were affected, confluent monolayers on 6-well plates were growth arrested for 24 hours in DMEM with 0.5% FBS. Cells were then pretreated 2 hours with 16α-BrEA or DMSO vehicle and stimulated with 10% FBS in DMEM for 15, 30 and 60 minutes. Cells were then lysed and c-fos protein was assayed by immunoblotting as described below.
# For measurement of c-fos protein, monolayers were placed on ice, washed twice with cold DPBS, scraped into 0.5 ml boiling buffer (10% [vol/vol] glycerol and 2% [wt/vol] sodium dodecyl sulfate [SDS] in 83 mM Tris, pH 6.8) and sonicated. Aliquots were removed for protein determination, bromophenol blue and β-mercaptoethanol were added and lysates were boiled and stored as outlined above. […]
# [1] = tested on: airway smooth muscle cells; experiment: Cytotoxicity: lactate dehydrogenase activity in cell supernatants; type: cell-based, rat; conditions: confluent cells incubated 24 hours; compared with DMSO vehicle (Figure 4B)
# Method: To study the effect of DHEA and 16α-BrEA on activation of AP-1, a secondary response important in cellular growth and proliferation (Angel and Karin, (1991), supra) confluent monolayers of airway smooth muscle in 75-cm^2 Petri dishes were growth arrested for 24 hours in 0.5% FBS and DMEM and pretreated 2 hours with DHEA, 16α-BrEA or DMSO vehicle. Cells were then stimulated with 10% FBS in DMEM for 6 hours, nuclear protein was harvested, and electrophoretic mobility shift assays were performed as described below to determine if treatment with DHEA and 16α-BrEA impaired DNA binding of AP-1. Measurement of Cytotoxicity and Apoptosis. To assess for cytotoxicity, DHEA or 16α-BrEA were added to wells of airway smooth muscle cells previously grown to confluence in DMEM and 10% FBS. After 24 hours, media was microfuged 5 minutes and supernatant was assayed for lactate dehydrogenase activity using a commercially available assay (DG-1340K from Sigma). Cells were washed twice in DPBS and exposed to trypan blue dye (0.04% in Hanks' balanced salt solution). Cell counts were performed in five random fields using a 0.01-cm^2 ocular grid to quantitate the average number of damaged or dead cells that accumulated dye. […]
# T1 sequence (P11413 whole entry): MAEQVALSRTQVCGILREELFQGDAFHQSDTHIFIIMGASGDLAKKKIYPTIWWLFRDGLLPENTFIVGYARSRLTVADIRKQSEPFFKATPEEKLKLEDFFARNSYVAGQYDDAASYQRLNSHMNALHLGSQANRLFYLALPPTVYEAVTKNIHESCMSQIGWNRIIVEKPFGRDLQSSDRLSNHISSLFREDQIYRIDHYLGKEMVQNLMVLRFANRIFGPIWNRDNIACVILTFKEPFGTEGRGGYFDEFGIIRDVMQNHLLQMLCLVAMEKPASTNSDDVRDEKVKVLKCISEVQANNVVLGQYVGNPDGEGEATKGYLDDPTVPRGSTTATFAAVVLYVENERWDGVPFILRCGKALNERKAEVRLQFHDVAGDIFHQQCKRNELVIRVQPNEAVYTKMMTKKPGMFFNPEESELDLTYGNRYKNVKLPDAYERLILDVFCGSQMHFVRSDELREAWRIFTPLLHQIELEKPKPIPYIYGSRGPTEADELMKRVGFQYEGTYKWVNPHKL
Compound,"rate of tension development in response to 10^-5 ACh (guinea pig main bronchi; 10^-4 M DHEA administered 15 minutes before ACh, 2.27±0.82 without DHEA)","relaxation of the ACh-induced contraction (guinea pig main bronchi; 10^-4 M DHEA, bronchi partially contracted with 10^-5 M ACh, n=5) [%]","EC50 (guinea pig main bronchi; Cavia porcellus, read-out: concentration of DHEA which produced 50% relaxation of the KCl-induced contraction) [µM]","relaxation of the KCl-induced contraction (guinea pig main bronchi; maximum concentration of DHEA, bronchi partially contracted with 3 x 10^-2 M KCl, after subtraction of the reduction of force due to time-vehicle, n=6) [%]",smooth muscle functionality (response to 1 mM acetylcholine after rinsing) (guinea pig main bronchi; three strips rinsed with fresh K-H at the end of the DHEA experiment),inhibition at 25 µM (Human Erythrocyte G6PDH; 25 µM) [%],inhibition at 50 µM (Human Erythrocyte G6PDH; 50 µM) [%],stimulation of c-fos protein or mRNA in response to 10% FBS (c-fos),LDH activity in supernatant [1]
"C[C@]12CC[C@H](O)CC1=CC[C@@H]1[C@@H]2CC[C@]2(C)C(=O)CC[C@@H]12 [DHEA, dehydroepiandrosterone]",1.85±0.85,37.98±4.76,21.6,76.28±6.96,not altered,–,–,–,–
"C[C@]12CC[C@H](O)C[C@@H]1CC[C@@H]1[C@@H]2CC[C@]2(C)C(=O)[C@H](Br)C[C@@H]12 [16α-BrEA, 16α-bromoepiandrosterone]",–,–,–,–,–,47 ± 6,57 ± 9,did not reduce,does not increase LDH activity
